# Data: patent US9402875B2, “Amidated dopamine neuron stimulating peptide restoration of mitochondrial activity” (University of Kentucky Research Foundation, priority 2006, dated 2016)
# “Also recorded” adds a separate entry of the source. Ends that are not written are not given here.
# Experiments:
# [1] = tested on: mitochondrial-associated genes in the substantia nigra; assay: Gene array analysis (Affymetrix) of substantia nigra after DNSP-11; format: in vivo, rat; conditions: 48 h after bilateral 30 μg
# Method: Changes in expression of mitochondrial-associated genes in the substantia nigra (SN) of three young adult (5 month old) male F344 rats 48 hours following bilateral intranigral injections of DNSP-11 into the substantial nigra was assessed as follows.
# A 3 μg/μl DNSP-11 peptide solution was prepared in citrate buffer and filter sterilized. Stereotaxic injections were made of 30 μg DNSP-11 in 10 ul citrate buffer into the substantia nigra on each side of the brain. Controls received […] injections of vehicle. Forty-eight hours later, the animals were euthanized, the brains quickly recovered and sectioned so that the bilateral SN could be dissected out as one block of tissue and snap frozen in liquid nitrogen. RNA was extracted from the SN samples for gene array analysis, which was conducted on Affymetrix Version II chips. A gene chip was run for each of the six rats: three bilateral vehicle recipients, three bilateral 30 μg DNSP-11 recipients.
# [2] = tested on: B65 cells; assay: Caspase-3 activity assay, mitochondrial toxins; format: cell-based
# Method: (§1) MN9D cells and B65 cells were cultured in Dulbecco's Modified Eagle's Medium (DMEM; 11995 (containing pyridoxol HCl); Sigma, St. Louis, Mo.) supplemented with 10% fetal bovine serum (HyClone, Logan, Utah), 50 U/mL penicillin and streptomycin. For each assay the cells were treated with mitochondrial-specific environmental toxins, i.e., MPP+, rotenone, and/or TaClo, and with or without DNSP-11. After incubation with the toxins, the cells were plated on 24-well poly-D-lysine plates (50,000 cells/well) for TUNEL assay (as described below) or 100,000 cell/well for caspase-3 assay in DMEM medium with 1% (v/v) penicillin-streptomycin only (as described below).
# B65 cells were plated on 24-well poly-D-lysine plates in DMEM and 50u/ml penicillin and streptomycin. Cells incubated in either 50 nM, 100 nM, or 250 nM rotenone or 10 μM, […] or 50 μM TaClo for 1 to 12 hours at 37° C. in 5% CO2, following pretreatment (1 to 30 minutes) with or without 10 nM or 100 nM DNSP-11. The cells were then lysed and protein level measured by BCA assay (BioRad). The protein level were normalized for every experiment. The Enz Chek Caspase-3 Kit (Invitrogen) was used to detect caspase-3 activity and fluorescence was read on fluorescence reader (excitation/emission 496/520 nm). Data are expressed as % of control and were repeated a minimum of three times.
# [3] = tested on: MN9D cells; assay: JC-1 mitochondrial membrane potential assay; format: cell-based
# Method: as §1
# (§2) MN9D and B65 cells were treated with either 50 nM, 100 nM, 250 nM, 500 nM, 2.5 μM or 5 μM rotenone, 50 nM, 100 nM, 250 nM 1-methyl-4-phenylpyridinium (MPP+), or 10 μM , 25 μM, 50 μM, 100 μM, 150 μM or […]-1,2,3,4-tetrahydro-β-carboline (TaClo), for 1 to 12 hours and then incubated at 37° C. in 5% CO2 following pretreatment (1 to 30 minutes) with or without 100 nM or 10 nM DNSP-11. After treatment with rotenone, MPP+ or TaClo and incubation with DNSP-11, the cells were incubated for 30 minutes at 37° C. in a 5% CO2 incubator in the presence of 10 μM of the green fluorescent JC-1 (5,5′, 6,6′-tetrachloro-1,1′,3,3′-tetraethylbenzimidazolyl-cabo-cyanine iodine, T-3168 (Invitrogen)) and then washed in Locke's solution. Optical measurements were acquired with excitation at 485 nm and emission at 527 nm, and 590 nm. The levels of fluorescence at each emission wavelengths were quantified and ratio of measurements was assessed. The pertinent data are given as mean±S.E.M. for mean optical measurements. The values are expressed as percent of the mean control values ±S.E.M. and analyzed using ANOVA.
# [4] = tested on: B65 cells; assay: JC-1 mitochondrial membrane potential assay; format: cell-based
# Method: as §1, §2
# [5] = MPP+, rotenone or TaClo 1 to 12 hours, pretreatment with 10 nM or 100 nM DNSP-11
substance,measurement,setting,value
"PPEAPAEDRSL-NH2 [DNSP-11, PPEAPAEDRSL-amide]",APP FOLD CHANGE,[1]; vs control,−1.08
same,BACEI FOLD CHANGE,[1]; vs control,−1.09
same,CASP3 FOLD CHANGE,[1]; vs control,1.18
same,CASP8 FOLD CHANGE,[1]; vs control,1.25
same,CAT FOLD CHANGE,[1]; vs control,1.09
same,COX6A2 FOLD CHANGE,[1]; vs control,1.75
same,COX6B1 FOLD CHANGE,[1]; vs control,1.04
same,COX17 FOLD CHANGE,[1]; vs control,1.11
same,GLRX2 FOLD CHANGE,[1]; vs control,1.09
same,GPX7 FOLD CHANGE,[1]; vs control,1.19
same,MAOB FOLD CHANGE,[1]; vs control,1.13
same,MAP2K4 FOLD CHANGE,[1]; vs control,−1.12
same,MAPK9 FOLD CHANGE,[1]; vs control,−1.21
same,MAPK10 FOLD CHANGE,[1]; vs control,−1.08
same,NDUFA7 FOLD CHANGE,[1]; vs control,1.07
same,PARK7 FOLD CHANGE,[1]; vs control,1.02
same,PRDX5 FOLD CHANGE,[1]; vs control,1.13
same,PSEN1 FOLD CHANGE,[1]; vs control,1.16
same,TXN2 FOLD CHANGE,[1]; vs control,1.10
same,"CAT catalase expression level, PEPTIDE",[1]; P 0.015,2828.2
same,"CASP8 caspase 8 expression level, PEPTIDE","[1]; control 178.1, P 0.006",219.4
same,"GPX7 glutathione peroxidase 7 expression level, PEPTIDE","[1]; control 183.8, P 0.015",194.2
same,"CASP3 caspase 3 expression level, PEPTIDE","[1]; control 367.5, P 0.024",421.4
same,"BACEI beta-site APP-cleaving enzyme 1 expression level, PEPTIDE","[1]; control 510.6, P 0.016",451.6
same,"COX6A2 cytochrome c oxidase subunit Via polypeptide2 expression level, PEPTIDE","[1]; control 520.6, P 0.014",814.1
same,"MAPK10 mitogen-activated protein kinase 10 expression level, PEPTIDE","[1]; control 552.8, P 0.008",505.0
same,"PSEN1 presenilin 1 expression level, PEPTIDE","[1]; control 563.2, P 0.022",673.5
same,"MAPK9 mitogen-activated protein kinase 9 expression level, PEPTIDE","[1]; control 930.0, P 0.007",770.7
same,"TXN2 thioredoxin 2 expression level, PEPTIDE","[1]; control 1378.5, P 0.010",1511.9
same,"MAOB monoamine oxidase B expression level, PEPTIDE","[1]; control 1974.2, P 0.012",2199.8
same,"COX17 cytochrome c oxidase assembly homolog expression level, PEPTIDE","[1]; control 2017.8, P 0.025",2326.1
same,"MAP2K4 mitogen-activated protein kinase kinase 4 expression level, PEPTIDE","[1]; control 2744.4, P 0.043",2422.4
same,"NDUFA7 NADH dehydrogenase (ubiquinone) 1 alpha subcomplex, 7 expression level, PEPTIDE","[1]; control 2943.0, P 0.046",3125.4
same,"GLRX2 glutaredoxin 2 expression level, PEPTIDE","[1]; control 3472.2, P <0.001",3618.7
same,"PRDX5 peroxiredoxin 5 expression level, PEPTIDE","[1]; control 4790.1, P 0.020",5569.8
same,"PARK7 DJ-1 expression level, PEPTIDE","[1]; control 5159.4, P 0.032",5299.2
same,"COX6B1 cytochrome c oxidase subunit Vib polypeptide 1 expression level, PEPTIDE","[1]; control 7536.6, P 0.044",7869.7
same,"APP amyloid beta (A4) precursor protein expression level, PEPTIDE","[1]; control 10117.2, P 0.006",9734.4
same,"caspase-3 activity, DNSP-11 alone",[2]; no toxin,no significant effect
same,"caspase-3 activity, protection from toxins","[2]; rotenone or TaClo 1 to 12 hours, pretreatment with 10 nM or 100 nM DNSP-11",significant protection
same,"mitochondrial potential, protection from toxins",[3]; [5],protects the cells; also recorded: significant protection
same,"mitochondrial potential, DNSP-11 alone",[3]; no toxin,no significant effect
same,"mitochondrial potential, protection from toxins",[4]; [5],protects the cells; also recorded: significant protection
same,"mitochondrial potential, DNSP-11 alone",[4]; no toxin,no significant effect
